Data as given in paper PMC3105092 (PLoS ONE, 2011).
“And” between values parts separate entries of the source, which are not always exact repeats. Equal values may be shown once.

Assays:
[1] = target: T1, AgCPR (Anopheles gambiae NADPH-cytochrome P450 oxidoreductase) (Anopheles gambiae, UniProt Q86QH5); experiment: Isothermal titration calorimetry of nucleotide ligands with AgCPR; format: binding; details: for Kobs / TΔS / n (binding stoichiometry) / ΔG / ΔH: 25°C, 100 mM BES pH 7.0
T1 sequence (Q86QH5 64-679): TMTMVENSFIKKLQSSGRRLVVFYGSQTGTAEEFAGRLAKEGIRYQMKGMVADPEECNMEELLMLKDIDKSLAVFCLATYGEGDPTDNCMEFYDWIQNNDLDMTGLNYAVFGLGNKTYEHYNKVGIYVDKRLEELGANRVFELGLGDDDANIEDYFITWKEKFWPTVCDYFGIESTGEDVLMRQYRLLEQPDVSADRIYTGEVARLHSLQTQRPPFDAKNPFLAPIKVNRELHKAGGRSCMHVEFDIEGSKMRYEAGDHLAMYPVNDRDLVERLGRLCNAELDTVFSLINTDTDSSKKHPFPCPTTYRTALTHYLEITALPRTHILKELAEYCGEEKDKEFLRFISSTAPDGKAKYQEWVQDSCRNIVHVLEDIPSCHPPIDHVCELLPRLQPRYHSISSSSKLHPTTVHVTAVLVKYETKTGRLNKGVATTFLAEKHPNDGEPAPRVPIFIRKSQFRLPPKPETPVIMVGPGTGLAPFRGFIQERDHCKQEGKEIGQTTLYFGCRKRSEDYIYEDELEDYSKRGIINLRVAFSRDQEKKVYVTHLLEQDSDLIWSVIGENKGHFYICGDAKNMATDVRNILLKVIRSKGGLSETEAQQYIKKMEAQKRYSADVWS
Experimental: (§1) ITC experiments were performed using a ITC200 microcalorimeter (Microcal Inc/GE Healthcare). Protein samples were dialysed into 100 mM BES; pH 7.0 from 50% glycerol stocks stored at −20°C. The concentrations of all the proteins were determined by using Bradford assay. Samples were centrifuged at 13,000×g for 10 min and degassed at 23°C (2°C below the temperature at which the experiments were performed). All experiments were performed at 25°C. Typically, the protein concentration in the cell was 10–20 µM whilst ligand concentrations were in the range of 100–1000 µM. The data analysed using Origin 7.0 (Microcal) after subtracting the heats of dilution obtained from parallel experiments performed by injecting the nucleotide into the buffer. Thermodynamic parameters n (stoichiometry), K d (1/K a, the association constant), and Δ°H (enthalpy change) were obtained by nonlinear least-squares fitting of experimental data using the single-site binding model. The free energy of binding (ΔG°) and entropy change (ΔS°) were obtained using eqs 1 and 2.

[2] = target: T2, hCPR (human CPR) (Homo sapiens, UniProt P16435); experiment: Isothermal titration calorimetry of nucleotide ligands with hCPR; format: binding; details: ITC, 25°C, 100 mM BES pH 7.0
T2 sequence (P16435 43-677 limits assumed): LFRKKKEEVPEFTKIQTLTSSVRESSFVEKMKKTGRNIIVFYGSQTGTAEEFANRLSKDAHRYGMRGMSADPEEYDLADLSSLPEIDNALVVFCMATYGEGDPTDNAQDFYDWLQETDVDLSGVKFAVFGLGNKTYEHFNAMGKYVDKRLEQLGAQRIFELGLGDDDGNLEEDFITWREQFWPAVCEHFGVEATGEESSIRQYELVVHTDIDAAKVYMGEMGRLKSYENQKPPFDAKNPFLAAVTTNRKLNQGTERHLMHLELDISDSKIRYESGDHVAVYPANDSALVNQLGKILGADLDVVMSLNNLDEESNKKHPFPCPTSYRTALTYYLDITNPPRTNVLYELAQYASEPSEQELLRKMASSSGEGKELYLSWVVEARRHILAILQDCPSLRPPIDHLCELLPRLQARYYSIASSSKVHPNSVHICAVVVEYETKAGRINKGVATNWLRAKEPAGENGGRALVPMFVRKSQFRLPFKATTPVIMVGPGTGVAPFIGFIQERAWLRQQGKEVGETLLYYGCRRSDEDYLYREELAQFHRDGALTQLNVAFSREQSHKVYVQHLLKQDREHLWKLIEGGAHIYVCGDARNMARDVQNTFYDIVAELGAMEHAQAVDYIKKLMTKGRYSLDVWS
Experimental: as §1

[3] = target: T3, AgCPR (Anopheles gambiae, UniProt Q86QH5); experiment: Inhibition of cytochrome c reduction by AgCPR; format: biochemical
Experimental: (§3) Measurement of cytochrome c reduction was carried out at 25°C with 50 µM cytochrome c and 0.75 pmol purified AgCPR or hCPR essentially as described [17] using 0.3 M potassium phosphate buffer, pH 7.7 or 0.1 M Tris-HCl, pH 7.7/0.1 M KCl, and different concentrations of 2′, 5′-ADP, 2′-AMP, NADP or diphenyliodonium chloride (all from Sigma-Aldrich, UK).

[4] = target: T4, hCPR (Homo sapiens, UniProt P16435); experiment: Inhibition of cytochrome c reduction by hCPR; format: biochemical
T4 sequence (P16435 43-677 limits assumed): T2 sequence (P16435 43-677 limits assumed)
Experimental: as §3

[5] = target: human anchorless NADPH-cytochrome P450 oxidoreductase (hCPR) (human) (UniProt P16435)
human anchorless NADPH-cytochrome P450 oxidoreductase (hCPR) (human), sequence (P16435 2-21): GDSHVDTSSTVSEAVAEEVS

[6] = target: Δ63AgCPR (Anopheles gambiae NADPH-cytochrome P450 oxidoreductase lacking the N-terminal membrane anchor) (Anopheles gambiae)
[7] = target: T5, isolated apo-human FMN-binding domain of CPR (Homo sapiens, UniProt P16435); experiment: Isothermal titration calorimetry of FMN with apo-human FMN-binding domain; details: ITC, 25°C, 100 mM BES
T5 sequence (P16435 80-224 limits assumed): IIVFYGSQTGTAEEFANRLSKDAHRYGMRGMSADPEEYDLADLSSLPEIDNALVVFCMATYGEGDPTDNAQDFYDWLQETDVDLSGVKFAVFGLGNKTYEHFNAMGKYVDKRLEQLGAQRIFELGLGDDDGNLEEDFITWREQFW
Experimental: as §1
(§2) The binding affinity of FMN to the isolated FMN-binding domains of both A. gambiae and hCPR were also examined by titration of the apo-FMN binding domains (Figure 4). Both isotherms show reasonable binding and saturation of the apo-proteins is achieved with excess flavin.

[8] = target: isolated apo-A. gambiae FMN-binding domain of CPR (Anopheles gambiae, UniProt Q86QH5); experiment: Isothermal titration calorimetry of FMN with apo-A. gambiae FMN-binding domain; details: ITC
Experimental: as §1, §2

[9] = target: T6, hCPR (Homo sapiens, UniProt P16435); experiment: Isothermal titration calorimetry of oxidised CPR with nucleotides in phosphate-free 100 mM BES, pH 7.0, 25 °C, single-site model; Kd = 1/Kobs.; format: binding
T6 construct: gene POR
T6 sequence (P16435 64-677): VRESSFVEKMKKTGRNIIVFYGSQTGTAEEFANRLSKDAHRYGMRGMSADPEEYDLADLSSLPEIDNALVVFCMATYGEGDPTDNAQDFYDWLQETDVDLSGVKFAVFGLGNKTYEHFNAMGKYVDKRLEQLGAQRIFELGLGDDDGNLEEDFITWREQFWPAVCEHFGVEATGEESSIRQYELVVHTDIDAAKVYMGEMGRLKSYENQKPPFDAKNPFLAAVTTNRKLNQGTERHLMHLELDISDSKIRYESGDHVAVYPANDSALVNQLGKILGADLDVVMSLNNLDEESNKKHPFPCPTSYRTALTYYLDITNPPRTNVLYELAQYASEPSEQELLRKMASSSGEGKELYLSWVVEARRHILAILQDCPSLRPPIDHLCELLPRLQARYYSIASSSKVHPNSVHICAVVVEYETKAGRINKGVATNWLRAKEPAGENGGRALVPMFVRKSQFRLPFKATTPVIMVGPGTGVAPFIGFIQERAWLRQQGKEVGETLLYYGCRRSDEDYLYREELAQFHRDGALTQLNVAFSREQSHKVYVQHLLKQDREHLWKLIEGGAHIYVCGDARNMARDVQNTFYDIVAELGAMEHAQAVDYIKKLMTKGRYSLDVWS
Excerpt: Figure 3 represents the ITC binding isotherms resulting from the titration of AgCPR with 2′, 5′-ADP, NADP+ and 2′-AMP.

[10] = target: T6, hCPR; experiment: Inhibition of cytochrome c (50 µM) reduction in phosphate-free 0.1 M Tris-HCl pH 7.7/0.1 M KCl, 25 °C, started with 12 µM (AgCPR) or 5 µM (hCPR) NADPH.; format: biochemical; details: SEM; read-out: IC50 µM (±S.E.), Tris Buffer
Experimental: as §3

[11] = target: T3, AgCPR; experiment: Inhibition of cytochrome c (50 µM) reduction in 0.3 M potassium phosphate pH 7.7, 25 °C, started with 30 µM NADPH (AgCPR).; format: biochemical; parameters: Δ63AgCPR: soluble, membrane anchor (amino acids 2-63) deleted; His-tag removed by thrombin; expressed in E. coli; details: SEM; read-out: IC50 µM (±S.E.), Phosphate Buffer
Experimental: as §3

[12] = target: T3, AgCPR; experiment: Inhibition of cytochrome c (50 µM) reduction in phosphate-free 0.1 M Tris-HCl pH 7.7/0.1 M KCl, 25 °C, started with 12 µM (AgCPR) or 5 µM (hCPR) NADPH.; format: biochemical; parameters: Δ63AgCPR: soluble, membrane anchor (amino acids 2-63) deleted; His-tag removed by thrombin; expressed in E. coli; details: SEM; read-out: IC50 µM (±S.E.), Tris Buffer
Experimental: as §3

[13] = target: T3, AgCPR; experiment: Cytochrome c and NADPH steady-state kinetics, AgCPR; format: biochemical; details: phosphate buffer, 50 µM NADPH, 25°C; read-out: Km cytc
Experimental: (§4) The rate of change of absorbance of horse heart cytochrome c (Sigma-Aldrich, UK) at 550 nm was measured at 25°C using a Cary 4000 UV-Visible spectrophotometer essentially as described [17]. For cytochrome c kinetics, 0.75 pmol purified AgCPR or hCPR was pre-incubated with 0–110 µM cytochrome c (dissolved in 0.3 M potassium phosphate buffer; pH 7.7 or 0.1 M Tris-HCl, pH 7.7/0.1 M KCl) in a total volume of 500 µl for 2 min at 25°C.

[14] = target: T4, hCPR; experiment: Cytochrome c and NADPH steady-state kinetics, hCPR; format: biochemical; details: phosphate buffer, 50 µM NADPH, 25°C; read-out: Km cytc
Experimental: as §4

[15] = target: methionine synthase reductase; details: read-out: low affinity binding mode (Kd); cited from earlier work
[16] = read-out: IC50 (±S.E.), inhibition of cytochrome c reduction
[17] = IC50 (±S.E.), inhibition of cytochrome c reduction, Human CPR, Phosphate Buffer (0.3 M potassium phosphate pH 7.7), 15 µM NADPH, 50 µM cytochrome c, 25°C
[18] = 25°C, 100 mM BES, A. gambiae apo-FMN domain

horse heart cytochrome c, sequence (P00004 whole entry): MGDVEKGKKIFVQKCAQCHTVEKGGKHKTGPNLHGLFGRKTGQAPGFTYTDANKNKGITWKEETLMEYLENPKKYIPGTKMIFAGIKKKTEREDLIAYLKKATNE

Nc1ncnc2c1ncn2[C@@H]1O[C@H](CO)[C@@H](O)[C@H]1OP(=O)(O)O [2′-AMP]
Kd [1]: 4 ± 0.18 µM
Kobs ([1]; ITC): 2.51±0.11 ×10^5 M^−1
TΔS ([1]; ITC): -9.16 kJ/mol
n (binding stoichiometry) ([1]; ITC): 1.01±0.22
ΔG ([1]; ITC): -22.9 kJ/mol
ΔH ([1]; ITC): -32 ± 8.28 kJ/mol
Kobs [2]: 6.15±1.69 ×10^5 M^−1
TΔS [2]: -13.4 kJ/mol
n (binding stoichiometry) [2]: 1.02±0.06
ΔG [2]: -32.9 kJ/mol
ΔH [2]: -46.32 ± 3.68 kJ/mol
IC50 [3, 16]: 468 µM
IC50 [4, 17]: 1090 µM
IC50 [4, 16]: 468 ± 41 µM

NADP^+
Kobs [2]: 145±24.5 ×10^5 M^−1
TΔS [2]: -37.3 kJ/mol
n (binding stoichiometry) [2]: 1.01±0.12
ΔG [2]: -44.14 kJ/mol
ΔH [2]: -81.42 kJ/mol and -81.42 ± 12.2 kJ/mol

horse heart cytochrome c (from UniProt P00004 1-105) (natural protein)
Km^cytc of NADPH-dependent cytochrome c reduction (steady state, 0-110 µM cytochrome c, phosphate buffer, 25°C) [5]: 19 µM
Km^cytc of NADPH-dependent cytochrome c reduction (steady state, 0-110 µM cytochrome c, phosphate buffer, 25°C) [6]: 23 µM

Cc1cc2nc3c(=O)[nH]c(=O)nc-3n(C[C@H](O)[C@H](O)[C@H](O)COP(=O)(O)O)c2cc1C [FMN, flavin mononucleotide]
Kd [7]: 0.023 ± 0.0009 µM
Kobs [7]: 438±17.5 ×10^5 M^−1
n (binding stoichiometry) [7]: 1.00±0.01
ΔG [7]: -43.01 kJ/mol
ΔH [7]: -81.42 ± 1.46 kJ/mol
FMN binding to A. gambiae FMN domain weaker than human domain (fold) [8]: ~4 fold
Kd [8, 18]: 0.083 ± 0.002 µM
Kobs [8, 18]: 120±3.19 ×10^5 M^−1
TΔS [8, 18]: -15 kJ/mol
n (binding stoichiometry) [8, 18]: 0.98±0.01
ΔG [8, 18]: -40.2 kJ/mol
ΔH [8, 18]: -55.15 ± 0.795 kJ/mol

c1ccc([I+]c2ccccc2)cc1 [diphenyliodonium chloride]
IC50 [3]: 28 ± 2 µM
AgCPR more sensitive to inhibition than hCPR (fold) ([3]; cytochrome c reduction, phosphate buffer): ~10 fold

Nc1ncnc2c1ncn2[C@@H]1O[C@H](COP(=O)(O)O)[C@@H](O)[C@H]1OP(=O)(O)O [2′,5′-ADP, adenosine 2′,5′-diphosphate]
Kd [9]: 0.038 ± 0.0038 µM
IC50 [10]: 10 ± 1 µM
IC50 [11]: 262 ± 18 µM
IC50 [12]: 62 ± 7 µM

cytochrome c: horse heart cytochrome c, surrogate electron acceptor for measuring diflavin reductase activity
Km [13]: 23 µM
Km [14]: 19 µM

Nc1ncnc2c1ncn2[C@@H]1O[C@H](CO)[C@@H](O)[C@H]1OP(=O)(O)O [2′-AMP, adenosine 2′-monophosphate]
Kd [9]: 1.6 ± 0.44 µM
IC50 [10]: 280 ± 25 µM
IC50 [11]: 1090 ± 202 µM
IC50 [12]: 384 ± 27 µM

Nc1ncnc2c1ncn2[C@@H]1O[C@H](COP(=O)(O)O)[C@@H](O)[C@H]1OP(=O)(O)O [2′,5′-ADP]
Kd [1]: 0.41 ± 0.018 µM
binding (Kd) to AgCPR weaker than hCPR (fold) ([1]; ITC): ~10 fold
Kobs ([1]; ITC): 24.4±1.07 ×10^5 M^−1
TΔS ([1]; ITC): -19.8 kJ/mol
n (binding stoichiometry) ([1]; ITC): 1.01±0.03
ΔG ([1]; ITC): -35.1 kJ/mol
ΔH ([1]; ITC): -54.94 kJ/mol and -54.94 ± 1.46 kJ/mol
Kobs [2]: 263±26.3 ×10^5 M^−1
TΔS [2]: -41.7 kJ/mol
n (binding stoichiometry) [2]: 1.00±0.02
ΔG [2]: -43.47 kJ/mol
ΔH [2]: -85.19 kJ/mol and -85.19 ± 2.22 kJ/mol
IC50 of AgCPR relative to hCPR (fold higher) ([3]; both phosphate and phosphate-free buffer): 6–10 fold
affinity for mosquito CPR lower than human (fold, from IC50) ([3]; phosphate-free Tris buffer): 6 fold
IC50 [4, 17]: 28 ± 2 µM
Kd [15]: ~0.5 µM
